According to the supplement of paper PMC11208160:

Experiment: recombinant UMI read abundance after kanamycin selection (control-corrected) (log10(CPM+1)); higher = more efficient recombination; extreme values may be limits of the assay; sequences stand for … in AGTGCAGAGAAAATCGGCCAGTTTTCTCTGCCTGCAGTCCGCATGCCGTGGGACCCCTTGGGTTCTAACCTGTTGCCTAGATTTATGCAGCGGACTGCCTTTCTCCCAAAGTGATAAACCGG…AGGTTGGTTTCACT; site = the 11-nt donor
In short: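 Pooled Escherichia coli screen of donor and donor-binding-loop pairs for the IS621 bridge recombinase. Each pair sits with a 12-nt UMI on a plasmid carrying a promoterless kanamycin gene. The library was co-electroporated with a target plasmid encoding a fixed target and T7-inducible recombinase, then plated with IPTG (0.07 mM) plus kanamycin, or unselected, each in two replicates. Recombinant UMIs were PCR-amplified across the donor–target junction and sequenced. Counts became CPM, averaged over replicates, scaled by control-derived factors and reported as log10(CPM+1).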
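Further: IS621 bridge recombinase in Escherichia coli cells against a fixed T5 target plasmid.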

| Sequence | recombinant UMI read abundance (log10) |
| --- | --- |
| CGTTAGTCATGGACCGGTTTTCCCGGTAATCCGTATTTGAG (site CGTTAGCCTCT) | 0.0076 |
| CGTTAGTCATGGACCGGTTTTCCCGGTAATCCGTATTTGAG (site CGTTAGGCTCT) | 0.0227 |
| CGTTAGTCATGGACCGGTTTTCCCGGTAATCCGTATTTGAG (site CGTTAGTCTCT) | 2.05 |
| CGTTCACCATGGACCGGTTTTCCCGGTAATCCGTATTTGCT (site CGATCATCTAG) | 0 |
| CGTTCACCATGGACCGGTTTTCCCGGTAATCCGTATTTGCT (site CGTTCACCTAG) | 0.00366 |
| CGTTCATCATGGACCGGTTTTCCCGGTAATCCGTATTTGAT (site CGATCATCTAG) | 0 |
| CGTTCATCATGGACCGGTTTTCCCGGTAATCCGTATTTGAT (site CGTTCATCTAT) | 0 |
| CGTTCGACATGGACCGGTTTTCCCGGTAATCCGTATTTGAG (site CGTTAGACTCT) | 0.0143 |
| CGTTCGACATGGACCGGTTTTCCCGGTAATCCGTATTTGAG (site CGTTCGACTCT) | 0.635 |
| CGTTCGACATGGACCGGTTTTCCCGGTAATCCGTATTTGAG (site CGTTGGACTCT) | 0.0108 |
| CGTTCGACATGGACCGGTTTTCCCGGTAATCCGTATTTGAG (site CGTTTGACTCT) | 0.0134 |
| CGTTGAACATGGACCGGTTTTCCCGGTAATCCGTATTTGGA (site CGTTGAACTTC) | 0.945 |
| CGTTGAGCATGGACCGGTTTTCCCGGTAATCCGTATTTGCG (site CGTTGAGCTCG) | 1.2 |
| CGTTGGGCATGGACCGGTTTTCCCGGTAATCCGTATTTGCT (site CGTTAGGCTAG) | 0.41 |
| CGTTGGGCATGGACCGGTTTTCCCGGTAATCCGTATTTGCT (site CGTTCGGCTAG) | 0 |
| CGTTGGGCATGGACCGGTTTTCCCGGTAATCCGTATTTGCT (site CGTTGGGCTAG) | 1.65 |
| CGTTGGGCATGGACCGGTTTTCCCGGTAATCCGTATTTGCT (site CGTTTGGCTAG) | 0 |
| CGTTGTCCATGGACCGGTTTTCCCGGTAATCCGTATTTGAA (site CGTTGTCCTTT) | 0.00747 |
| CGTTGTCCATGGACCGGTTTTCCCGGTAATCCGTATTTGTA (site CGTTGTCCTTA) | 0.0342 |
| CGTTTAACATGGACCGGTTTTCCCGGTAATCCGTATTTGGC (site CGTTTAACTGC) | 0.793 |
| CGTTTAGCATGGACCGGTTTTCCCGGTAATCCGTATTTGCT (site CGTTTAGCTAG) | 0 |
| CGTTTAGCATGGACCGGTTTTCCCGGTAATCCGTATTTGCT (site CGTTTCGCTAG) | 0 |
| CGTTTAGCATGGACCGGTTTTCCCGGTAATCCGTATTTGCT (site CGTTTGGCTAG) | 0 |
| CGTTTAGCATGGACCGGTTTTCCCGGTAATCCGTATTTGCT (site CGTTTTGCTAG) | 0 |
| CGTTTGACATGGACCGGTTTTCCCGGTAATCCGTATTTGCT (site CGTTTGACTAG) | 2.38 |

| Sequence | recombinant UMI read abundance (log10) |
| --- | --- |
| CGTTTGACATGGACCGGTTTTCCCGGTAATCCGTATTTGCT (site CGTTTGCCTAG) | 0 |
| CGTTTGACATGGACCGGTTTTCCCGGTAATCCGTATTTGCT (site CGTTTGGCTAG) | 1.12 |
| CGTTTGACATGGACCGGTTTTCCCGGTAATCCGTATTTGCT (site CGTTTGTCTAG) | 0 |
| CGTTTGCCATGGACCGGTTTTCCCGGTAATCCGTATTTGCT (site CGTTTGACTAG) | 0 |
| CGTTTGCCATGGACCGGTTTTCCCGGTAATCCGTATTTGCT (site CGTTTGCCTAG) | 0.79 |
| CGTTTGCCATGGACCGGTTTTCCCGGTAATCCGTATTTGCT (site CGTTTGGCTAG) | 0.00559 |
| CGTTTGCCATGGACCGGTTTTCCCGGTAATCCGTATTTGCT (site CGTTTGTCTAG) | 0 |
| CGTTTGGCATGGACCGGTTTTCCCGGTAATCCGTATTTGCG (site CGTTTGGCTAG) | 0 |
| CGTTTGGCATGGACCGGTTTTCCCGGTAATCCGTATTTGCG (site CGTTTGGCTCG) | 0.142 |
| CGTTTGGCATGGACCGGTTTTCCCGGTAATCCGTATTTGCG (site CGTTTGGCTGG) | 0 |
| CGTTTGGCATGGACCGGTTTTCCCGGTAATCCGTATTTGCG (site CGTTTGGCTTG) | 0 |
| CGTTTGGCATGGACCGGTTTTCCCGGTAATCCGTATTTGCT (site AGTTTGGCTAG) | 0 |
| CGTTTGGCATGGACCGGTTTTCCCGGTAATCCGTATTTGCT (site CATTTGGCTAG) | 0 |
| CGTTTGGCATGGACCGGTTTTCCCGGTAATCCGTATTTGCT (site CCTTTGGCTAG) | 0 |
| CGTTTGGCATGGACCGGTTTTCCCGGTAATCCGTATTTGCT (site CGATTGGCTAG) | 0 |
| CGTTTGGCATGGACCGGTTTTCCCGGTAATCCGTATTTGCT (site CGCTTGGCTAG) | 0 |
| CGTTTGGCATGGACCGGTTTTCCCGGTAATCCGTATTTGCT (site CGGTTGGCTAG) | 0 |
| CGTTTGGCATGGACCGGTTTTCCCGGTAATCCGTATTTGCT (site CGTATGGCTAG) | 0.00345 |
| CGTTTGGCATGGACCGGTTTTCCCGGTAATCCGTATTTGCT (site CGTCTGGCTAG) | 0.00793 |
| CGTTTGGCATGGACCGGTTTTCCCGGTAATCCGTATTTGCT (site CGTGTGGCTAG) | 0.00452 |
| CGTTTGGCATGGACCGGTTTTCCCGGTAATCCGTATTTGCT (site CGTTAGGCTAG) | 0 |
| CGTTTGGCATGGACCGGTTTTCCCGGTAATCCGTATTTGCT (site CGTTCGGCTAG) | 0.0122 |
| CGTTTGGCATGGACCGGTTTTCCCGGTAATCCGTATTTGCT (site CGTTGGGCTAG) | 0 |
| CGTTTGGCATGGACCGGTTTTCCCGGTAATCCGTATTTGCT (site CGTTTAGCTAG) | 0 |
| CGTTTGGCATGGACCGGTTTTCCCGGTAATCCGTATTTGCT (site CGTTTCGCTAG) | 0 |

| Sequence | recombinant UMI read abundance (log10) |
| --- | --- |
| CGTTTGGCATGGACCGGTTTTCCCGGTAATCCGTATTTGCT (site CGTTTGACTAG) | 0 |
| CGTTTGGCATGGACCGGTTTTCCCGGTAATCCGTATTTGCT (site CGTTTGCCTAG) | 0 |
| CGTTTGGCATGGACCGGTTTTCCCGGTAATCCGTATTTGCT (site CGTTTGGCTAA) | 0.00833 |
| CGTTTGGCATGGACCGGTTTTCCCGGTAATCCGTATTTGCT (site CGTTTGGCTAC) | 0.00533 |
| CGTTTGGCATGGACCGGTTTTCCCGGTAATCCGTATTTGCT (site CGTTTGGCTAG) | 0 |
| CGTTTGGCATGGACCGGTTTTCCCGGTAATCCGTATTTGCT (site CGTTTGGCTAT) | 0.00603 |
| CGTTTGGCATGGACCGGTTTTCCCGGTAATCCGTATTTGCT (site CGTTTGGCTCG) | 0.00605 |
| CGTTTGGCATGGACCGGTTTTCCCGGTAATCCGTATTTGCT (site CGTTTGGCTGG) | 0 |
| CGTTTGGCATGGACCGGTTTTCCCGGTAATCCGTATTTGCT (site CGTTTGGCTTG) | 0 |
| CGTTTGGCATGGACCGGTTTTCCCGGTAATCCGTATTTGCT (site CGTTTGTCTAG) | 0 |
| CGTTTGGCATGGACCGGTTTTCCCGGTAATCCGTATTTGCT (site CGTTTTGCTAG) | 0 |
| CGTTTGGCATGGACCGGTTTTCCCGGTAATCCGTATTTGCT (site CTTTTGGCTAG) | 0 |
| CGTTTGGCATGGACCGGTTTTCCCGGTAATCCGTATTTGCT (site GGTTTGGCTAG) | 0 |
| CGTTTGGCATGGACCGGTTTTCCCGGTAATCCGTATTTGCT (site TGTTTGGCTAG) | 0.00607 |
| CTAAATGCATGGACCGGTTTTCCCGGTAATCCGTATTTGAG (site CTAAATGCTCT) | 2.87 |
| CTAAGCACATGGACCGGTTTTCCCGGTAATCCGTATTTGCT (site CTAAGCACTAG) | 1.9 |
| CTAAGCCCATGGACCGGTTTTCCCGGTAATCCGTATTTGAA (site CTAAGCCCTTT) | 1.25 |
| CTAAGCGCATGGACCGGTTTTCCCGGTAATCCGTATTTGAA (site CTAAGCGCTTT) | 2.02 |
| CTAAGTCCATGGACCGGTTTTCCCGGTAATCCGTATTTGGA (site CTAAGTCCTTC) | 0.16 |
| CTAATAACATGGACCGGTTTTCCCGGTAATCCGTATTTGAC (site CTAATAACTGT) | 2.34 |
| CTAATAACATGGACCGGTTTTCCCGGTAATCCGTATTTGAC (site CTAGTATCTGT) | 0 |
| CTAATAACATGGACCGGTTTTCCCGGTAATCCGTATTTGAT (site CTAATAACTAT) | 2.54 |
| CTAATGACATGGACCGGTTTTCCCGGTAATCCGTATTTGAC (site CTAATGACTGT) | 1.47 |
| CTAATTTCATGGACCGGTTTTCCCGGTAATCCGTATTTGCC (site CTAATTTCTGG) | 1.14 |
| CTACAGACATGGACCGGTTTTCCCGGTAATCCGTATTTGAG (site CTACAGACTCT) | 1.81 |
